Legend:
[1] = test system: HCT116 overexpressing p65BTK (HCT116p65BTK); conditions: 200 μM 5FU, 72 hours
[2] = test system: HCT116p53KO xenografts; assay: In vivo treatment of drug-resistant xenografts; conditions: for average volume of the tumor masses: after 28 days, ibrutinib 25 mpk oral gavage once a day 5 days a week, 5FU 60 mg/kg i.p. twice a week
[3] = test system: HCT116 xenografts; assay: In vivo treatment of drug-sensitive xenografts; conditions: for average volume of the tumor masses: after 28 days; for average volume of the tumor masses / significance of difference in tumor size vs vehicle-treated (untreated) group: 5FU 60 mpk
[4] = test system: HCT116 cells; assay: Photographs of cells at 72 hours of incubation (FIG. 5b); conditions: 10 μM 5FU or 20 μM ibrutinib
[5] = test system: HCT116p53KO, SW480, DLD-1 and HCT116 colon carcinoma cell lines; assay: In vitro cell proliferation assay (short term, CellTiter 96 AQueous); type: cell-based; conditions: ibrutinib 0 to 10 μM, up to 72 h
[6] = test system: HCT116p53KO, SW480, HT-29, HCT116 and RKO colon carcinoma cell lines; assay: Cell viability, calcein assay, ibrutinib alone (FIG. 15); type: cell-based; conditions: 72 hs
[7] = test system: SW480 colon cancer cells; assay: Cell viability, calcein assay (FIG. 6); type: cell-based; conditions: ibrutinib 20 μM with 5FU 200 μM or oxaliplatin 20 μM; oxaliplatin 20 μM alone; 72 hs
Method: At the end of the treatment cell viability was evaluated by calcein assay.

SMILES | viability: response to the cytotoxic effect of 5FU [1] | average volume of the tumor masses [2] | significance of reduction in tumor volume vs the untreated group ([2]; ibrutinib 25 mpk, 5FU 60 mpk, end of treatment (FIG. 9b)) | average volume of the tumor masses ([3]; ibrutinib 25 mpk) | average volume of the tumor masses ([3]; ibrutinib 50 mpk) | significance of difference in tumor size vs vehicle-treated (untreated) group ([3]; ibrutinib 25 mpk) | percentage of proliferating (Ki67-positive) cells compared to vehicle or ibrutinib alone ([3]; ibrutinib 25 mpk, 5FU 60 mpk (FIG. 12b)) | significance of difference in tumor size vs vehicle-treated (untreated) group ([3]; ibrutinib 50 mpk) | percentage of proliferating (Ki67-positive) cells compared to vehicle or ibrutinib alone ([3]; ibrutinib 50 mpk, 5FU 60 mpk (FIG. 13b)) | toxicity seen in photographs, drugs used singularly [4] | capacity of the cells to proliferate [5] | toxicity by cell type ([6]; highest concentration of ibrutinib (range 0 to 30 μM)) | viability ([6]; ibrutinib up to 20 μM, all cell lines) | anti-tumoral effect (tumor volume vs untreated group) ([2]; ibrutinib 50 mpk alone (FIG. 10b)) | growth-reducing and anti-proliferative effect on sensitive xenografts ([3]; ibrutinib alone, 25 or 50 mpk) | reversion of drug resistance (viability) [7]
O=c1[nH]cc(F)c(=O)[nH]1 [5FU, 5-fluoro-1H,3H-pyrimidine-2,4-dione] | become resistant to the cytotoxic effect of 5FU | ≈ 530 mm^3 | not significant | ≈ 226 mm^3 | ≈ 226 mm^3 | significant | significantly reduces the percentage of proliferating cells | significant | significantly reduces the percentage of proliferating cells | no toxicity is evident | – | – | – | – | – | –
C=CC(=O)N1CCC[C@@H](n2nc(-c3ccc(Oc4ccccc4)cc3)c3c(N)ncnc32)C1 [ibrutinib, 1-[(3R)-3-[4-amino-3-(4-phenoxyphenyl)pyrazolo[3,4-d]pyrimidin-1-yl]piperidin-1-yl]prop-2-en-1-one] | – | ≈ 760 mm^3 | – | ≈ 347 mm^3 | ≈ 372 mm^3 | not statistically significant | – | not statistically significant | – | no toxicity is evident | does not alter the capacity of the cells to proliferate | preferentially toxic for 5FU drug-resistant, p53-null | decreases the viability in a dose-dependent manner | has an anti-tumoral effect on its own | by itself is ineffective in these kind of tumors | –
O=C(O)C(=O)O.[NH-][C@@H]1CCCC[C@H]1[NH-].[Pt+2] [oxaliplatin] | – | – | – | – | – | – | – | – | – | – | – | – | – | – | – | Reversion of resistance was not obtained

From patent US20160193211A1, “COMBINATIONS OF A BTK INHIBITOR AND FLUOROURACIL FOR TREATING CANCERS” (priority 2013, published 2016)
